Results on eight compounds are retold here after US20060104907A1, “Biologically potent analogues of the Dmt-Tic pharmacophore and methods of use” (Government of the U.S.A., represented by the Secretary, …, priority 2004, published 2006).

One series concerns the target T1, mouse δ-opioid receptors (Mus musculus, UniProt P32300).
T1 construct: NG108-15 (mouse N18 neuroblastoma x rat C6 glioma) cell line, which expresses mouse δ-opioid receptors; endogenous in cells; host or cells: NG108-15 (mouse N18 neuroblastoma x rat C6 glioma)
The experiment in a line: Confocal microscopic visualization of fluorescent probe binding in NG108-15 cells. In kind it is cell-based. The note with it: for blockage of fluorescence of probe 3 bound to δ-opioid receptors: NG108-15 cells preincubated with antagonist (naltrindole 0.2 μM, 5 min) before adding the probe. On the procedure:
Visualization of δ-opioid receptor sites with the inventive fluorescent probe was obtained by incubating (15 min at 35° C.) the fluorescent tripeptide 3 (0.2 μM) with the NG108-15 (mouse N18 neuroblastoma x rat C6 glioma) cell line, which expresses mouse δ-opioid receptors. […] Localization and visualization of opioid receptor binding sites were obtained by incubating the fluorescent probe with the NG108-15 cells as shown in the left half of the fluorescent photomicrograph obtained from the confocal scanning laser microscope (FIG. 3).

Series [1] concerns the target T2, δ-opioid receptors (Rattus norvegicus, UniProt P33533).
T2 construct: using rat brain synaptosomes (P2 fraction); from tissue; host or cells: rat brain synaptosomes (P2 fraction)
As to the kind of experiment: Competitive receptor binding assay, rat brain synaptosomes (P2 fraction), [3H]DPDPE. To be noted: for fold decrease of δ-opioid receptor selectivity: compared to reference 1; for μ/δ (δ-opioid receptor selectivity): ratio Ki μ / Ki δ.

Series [2] has as its target T3, μ-opioid receptors (Rattus norvegicus, UniProt P33535).
T3 construct: using rat brain synaptosomes (P2 fraction); from tissue; host or cells: rat brain synaptosomes (P2 fraction)
As to the kind of experiment: Competitive receptor binding assay, rat brain synaptosomes (P2 fraction), [3H]DAMGO.

Series [3] concerns μ-opioid receptors. The experiment in a line: Functional bioactivity in guinea-pig ileum (GPI), electrically-evoked twitch. In kind it is cell-based. The note with it: agonist activity, inhibition of electrically-evoked twitch. On the procedure: (§1) Preparations of myenteric plexus-longitudinal muscle obtained from male guinea-pig ileum (GPI, enriched in μ-opioid receptors) and preparations of mouse vas deferens (MVD, containing δ-opioid receptors) were used for field stimulation with bipolar rectangular pulses of supramaximal voltage (Melchiorri et al., Eur. J. Pharm., 195: 201-207 (1991)). Agonists were evaluated for their ability to inhibit the electrically-evoked twitch. The biological potency of the compounds was compared with that of the μ-opioid receptor agonist dermorphin in GPI and with that of the δ-opioid receptor agonist deltorphin C in MVD. The results are expressed as the IC50 values obtained from dose-response curves (Prism™, GraphPad). To evaluate antagonistic properties, compounds 2 and 3 were added to the bath and allowed to interact with tissue receptor sites 5 min before adding deltorphin C. The IC50 values (nM) represent the mean of not less than six fresh tissue samples±SE. […] IC50 and pA2 values (nM) are mean ±SE of at least six experiments conducted with fresh tissues.

For series [4], the target named is T4, δ-opioid receptors (Mus musculus, UniProt P32300).
T4 construct: preparations of mouse vas deferens (MVD, containing δ-opioid receptors); from tissue; host or cells: mouse vas deferens
As to the kind of experiment: Functional bioactivity in mouse vas deferens (MVD), electrically-evoked twitch. Format: cell-based. On the procedure: as §1

Series [5] in a line: Fluorescence emission spectra and quantum yield. In kind it is physicochemical. To be noted: Tris/HCl buffer pH 6.6, excitation 350 nm. On the procedure: Fluorescence emission spectra were recorded on a Jobin Yvon-Spex FluoroMax-2 spectrofluorometer with 1 nm spectral resolution for excitation and emission. A peptide solution at a concentration of 2×10^−5M in Tris-HCl buffer, pH 6.6, was used. The excitation wavelength was 350 nm. Fluorescence quantum yield (φ) was determined relative to quinine sulfate (Fluka) in 1 N H2SO4 (φ=0.546) as a reference (Meech et al., Journal of Photochemistry, 23: 193 (1983)). The quantum yield was calculated according to the following equation: [formula] where the subscripts S and R refer to the sample ns and reference compound, respectively; E is the integrated area under the corrected emission spectrum; A is the absorbance of the solution at the excitation wavelength. Absorbance values were kept below 0.02 to minimise inner filter and self-quenching effects. Since both the sample and the reference were in aqueous solution, the correction for the refractive index (nS/nR)^2 was considered to be of no significant relevance.

In series [6] the target is T3, μ-opioid receptors. The note with it: rat brain synaptosomes; data taken from Balboni et al., J. Med Chem. 2004; read-out: Receptor affinity Ki^u; cited from earlier work.
Series [7] deals with T4, δ-opioid receptors. The note with it: cited from earlier work.
Series [8] deals with T2, δ-opioid receptors. To be noted: rat brain synaptosomes; data taken from Balboni et al., J. Med Chem. 2004; read-out: Receptor affinity Ki^δ; cited from earlier work.
For series [9], the target named is T5, δ-opioid receptor (Homo sapiens, UniProt P41143). To be noted: δ-opioid antagonist activity, literature; cited from earlier work.
Series [10] concerns the target T5, δ-opioid receptor. The note with it: cited from earlier work.

Counter-ions that a name gives are not always drawn. Like-named read-outs stand apart in the source and are kept apart here. Some results are limits rather than exact numbers.

T3 sequence (P33535 whole entry): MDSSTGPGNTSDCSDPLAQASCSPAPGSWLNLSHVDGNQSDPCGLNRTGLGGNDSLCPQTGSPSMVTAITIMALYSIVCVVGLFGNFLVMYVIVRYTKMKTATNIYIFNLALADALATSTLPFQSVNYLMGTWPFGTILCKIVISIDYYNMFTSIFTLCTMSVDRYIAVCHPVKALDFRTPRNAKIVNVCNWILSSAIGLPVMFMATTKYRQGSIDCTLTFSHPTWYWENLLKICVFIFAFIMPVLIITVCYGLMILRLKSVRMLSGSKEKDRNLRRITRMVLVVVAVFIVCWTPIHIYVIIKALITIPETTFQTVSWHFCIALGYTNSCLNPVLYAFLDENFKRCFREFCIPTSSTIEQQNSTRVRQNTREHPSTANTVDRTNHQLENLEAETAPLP
T1 sequence (P32300 whole entry): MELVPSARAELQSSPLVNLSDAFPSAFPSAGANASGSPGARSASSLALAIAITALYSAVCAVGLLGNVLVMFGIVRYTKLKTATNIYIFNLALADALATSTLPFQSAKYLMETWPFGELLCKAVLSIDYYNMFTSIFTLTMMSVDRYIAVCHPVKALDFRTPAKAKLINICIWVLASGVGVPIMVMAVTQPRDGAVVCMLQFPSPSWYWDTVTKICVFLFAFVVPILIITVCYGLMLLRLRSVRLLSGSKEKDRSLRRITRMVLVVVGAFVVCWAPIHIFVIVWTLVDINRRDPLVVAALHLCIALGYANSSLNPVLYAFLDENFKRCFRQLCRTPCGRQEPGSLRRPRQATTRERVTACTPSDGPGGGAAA
T4 sequence (P32300 whole entry): as above
T2 sequence (P33533 whole entry): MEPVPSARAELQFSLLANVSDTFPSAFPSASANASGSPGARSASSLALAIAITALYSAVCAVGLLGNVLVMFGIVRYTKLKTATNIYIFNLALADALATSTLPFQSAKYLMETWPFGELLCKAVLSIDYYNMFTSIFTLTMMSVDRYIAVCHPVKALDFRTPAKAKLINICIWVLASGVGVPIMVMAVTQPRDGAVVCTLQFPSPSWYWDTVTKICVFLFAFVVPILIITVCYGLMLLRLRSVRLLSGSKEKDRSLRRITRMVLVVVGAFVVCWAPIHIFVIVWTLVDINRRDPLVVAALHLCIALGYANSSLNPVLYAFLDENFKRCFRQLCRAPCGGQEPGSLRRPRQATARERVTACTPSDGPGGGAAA
T5 sequence (P41143 whole entry): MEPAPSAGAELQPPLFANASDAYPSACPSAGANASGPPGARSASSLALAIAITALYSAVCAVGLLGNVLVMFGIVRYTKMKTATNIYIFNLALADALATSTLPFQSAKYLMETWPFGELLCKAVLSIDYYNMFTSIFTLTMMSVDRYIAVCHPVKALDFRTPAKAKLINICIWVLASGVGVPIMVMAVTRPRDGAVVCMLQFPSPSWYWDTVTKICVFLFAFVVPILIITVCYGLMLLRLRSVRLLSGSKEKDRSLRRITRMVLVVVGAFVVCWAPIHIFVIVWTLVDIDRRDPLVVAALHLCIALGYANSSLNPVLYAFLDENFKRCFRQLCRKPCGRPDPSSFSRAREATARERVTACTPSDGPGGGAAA

The melting point is the temperature, or range, at which the solid turns liquid. `Cc1cc(O)cc(C)c1C[C@H](N)C(=O)N1Cc2ccccc2C[C@H]1C(=O)N[C@@H](CCC(=O)O)C(=O)NCCCCCNC(=S)Nc1ccc(-c2c3ccc(=O)cc-3oc3cc(O)ccc23)c(C(=O)O)c1` (as salt: TFA) [Compound 3, 5-(3-{5-[2-({2-[2-amino-3-(4-hydroxy-2,6-dimethyl-phenyl)-propionyl]-1,2,3,4-tetrahydro-isoquinoline-3-carbonyl}-amino)-4-carboxy-butyrylamino]-pentyl}-thioureido)-2-(6-hydroxy-3-oxo-3H-xanten-9-yl)-benzoic acid] returned a melting point of 169 to 171 °C.

In general, Ki refers to the equilibrium dissociation constant of an inhibitor or competing ligand from its target. Consider `Cc1cc(O)cc(C)c1C[C@H](N)C(=O)N1Cc2ccccc2C[C@H]1C(=O)N[C@@H](CCC(=O)O)C(=O)NCCCCCNC(=S)Nc1ccc(-c2c3ccc(=O)cc-3oc3cc(O)ccc23)c(C(=O)O)c1` [Compound 3, 5-(3-{5-[2-({2-[2-amino-3-(4-hydroxy-2,6-dimethyl-phenyl)-propionyl]-1,2,3,4-tetrahydro-isoquinoline-3-carbonyl}-amino)-4-carboxy-butyrylamino]-pentyl}-thioureido)-2-(6-hydroxy-3-oxo-3H-xanten-9-yl)-benzoic acid], for which the “residual fluorescence after antagonist preincubation” value at mouse δ-opioid receptors (NG108-15 cells, competition with δ-opioid receptor antagonists) is listed as “ca. 10%”. For the same compound, at δ-opioid receptors [1], the affinity corresponds to a Ki of 0.035 ± 0.01 nM, the “fold decrease of δ-opioid receptor selectivity” value is recorded as 5 fold and the “μ/δ (δ-opioid receptor selectivity)” value is 4,370. On δ-opioid receptors [1] (comparator from Korlipara et al. 1997), the “fold more δ-selective than fluorescent naltrindole derivative” value amounted to 857 fold. On δ-opioid receptors [1] (comparator from Kshirsagar et al. 1998), the “fold more δ-selective than fluorescent naltrindole derivative” value is on record as 115 fold. Further, the “δ-opioid receptor binding affinity (in words)” value at δ-opioid receptors [1] (rat brain synaptosomes) was “subnanomolar”. At μ-opioid receptors [2], this compound showed an inhibition constant Ki of 152 ± 44 nM.

The term IC50 denotes the concentration at which inhibition is half-maximal. The compound `Cc1cc(O)cc(C)c1C[C@H](N)C(=O)N1Cc2ccccc2C[C@H]1C(=O)N[C@@H](CCC(=O)O)C(=O)NCCCCCN` [Compound 2, H-Dmt-Tic-Glu-NH-(CH2)5—NH2] came in with a melting point of 163 to 165 °C. In addition, on δ-opioid receptors [1], the affinity corresponds to a Ki of 0.22 ± 0.04 nM, the “fold decrease of δ-opioid receptor selectivity” value is recorded as 13 fold and the “μ/δ (δ-opioid receptor selectivity)” value stood at 1700. Further, the “fold decrease in affinity for δ-opioid receptors” value at δ-opioid receptors [1] (compared to reference H-Dmt-Tic-Glu-NH2 (1)) stood at 3.7 fold. The compound further showed a half-inhibitory concentration (IC50) in the series on μ-opioid receptors [3] greater than 1000 nM. The Kb at δ-opioid receptors [4] was 1.58 nM. In addition, at δ-opioid receptors [4] (against [D-Ala2]deltorphin I dose-response curves), the MVD activity type entry is given as “competitive antagonist”. Further, at δ-opioid receptors [4] (antagonism of deltorphin C, Schild plot), the “MVD pA2” value is recorded as 8.8. For the same compound, the inhibitory constant (Ki) on μ-opioid receptors [2] was determined as 380 ± 65 nM. Further, the “fold increase of μ-opioid receptor affinity” value on μ-opioid receptors [2] (compared to the reference tripeptide (1)) came out at 3.6 fold.

For the compound Ac-Glu-NH(CH2)5—NH—(C═S)—NH-fluorescein, the fluorescence emission maximum in series [5] stood at 515 nm.

Take `Oc1ccc2c3c1O[C@H]1c4[nH]c5ccccc5c4C[C@@]4(O)[C@@H](C2)N(CC2CC2)CC[C@]314` [naltrindole]: the “blockage of fluorescence of probe 3 bound to δ-opioid receptors” value was “essentially eliminated the fluorescence” on mouse δ-opioid receptors and “considerable blockage of the fluorescence” at mouse δ-opioid receptors (listed as NTI).

As to H-Dmt-Tic-Glu-NH2 [Compound 1], the inhibition constant (Ki) at μ-opioid receptors [6] is 1360 ± 268 nM; on δ-opioid receptors [8], 0.06 ± 0.008 nM. Further, the MVD activity type entry on δ-opioid receptors [7] (Balboni et al., J. Med. Chem. 2004) is given as “partial δ-opioid agonist”. Besides, the IC50 is 2.58 ± 0.8 nM at δ-opioid receptors [7] (agonist activity, inhibition of electrically-evoked twitch, data taken from Balboni et al. 2004, read-out: MVD (IC50)) and greater than 1000 nM in the series on μ-opioid receptors [3].

Broadly, the pA2 is a measure of antagonist potency on a negative log scale. As for “2′,6′-dimethyl-L-tyrosine-1,2,3,4-tetrahydroisoquinoline-3-carboxylic acid [Dmt-Tic]”, the pA2 at δ-opioid receptor [9] is 8.2. Further, the “Ki^μ/Ki^δ” value at δ-opioid receptor [10] (literature (Salvadori et al. 1995 and others)) was 150,780.

In the case of H-Tyr-Tic-Phe-(Phe)-OH [TIPP], the δ-selectivity at δ-opioid receptor [10] (Arttamangkul et al., Mol. Pharmacol. 2000) is on record as > 20,000.
